Data as given in patent US12691101B2, “Compound and method for preventing or treating of respiratory diseases comprising the same as an active ingredient” (YONSEI UNIVERSITY, UNIVERSITY - INDUSTRY FOUNDATION (UIF), priority 2019, dated 2026).

Tests used:
HNE cells = experiment: IL-4 and IL-13-induced goblet cell hyperplasia in HNE cells, PAS staining; format: cell-based, human; conditions: pretreatment
Description: (A) The MUC5AC mRNA expression level was determined at the indicated time after treatment of F56 ([…]) in IL-4 (10 ng/ml)-treated HNE cells (mean±S.E., n=4). (B) Periodic acid-Schiff (PAS) staining showing goblet cell hyperplasia of IL-4 and IL-13 (10 ng/ml)-treated HNE cells in presence or absence of F56 ([…]) at Day 7. (C) Measurement of the total volume of ASL and fluid meniscus in HNE cells expressing wild-type (wt) or mutant (mt) PDS. The HNE cells were treated with IL-4 (10 ng/ml, 48 hours) in presence or absence of […]. (D) Representative image of a transwell insert having normal HNE cells. Arrows indicate the fluid meniscus of HNE cells treated with IL-4 (10 ng/ml, 48 hours) in presence or absence of […] F56. (E) Representative protein expression result of pendrin in IL-4 and IL-13-treated HNE cells. (F) Measurement of the total volume of ASL and fluid meniscus. The HNE cells were treated with IL-13 (10 ng/ml, 48 hours) in presence or absence of 30 mM F56 (mean±S.E., n=3-4). * P<0.05, *** P<0.001. Size bar, 30 μm.
For evaluation of airway inflammation, left lung was fixed in 4% paraformaldehyde overnight and embedded in paraffin. […] The inflammation score showing the severity of bronchial inflammation was evaluated by 3 blind observers using a method reported conventionally. […]

Serum T3 and T4 in mice = format: in vivo, mouse; conditions: 10 mg/kg/day for 1 week
Description: The negative effect of F56 was examined by i.p administering of F56 10 mg/kg to female balb/c mice every 24 hours for 7 days. In 24 hours after the last administration, the hearing of mice was measured and serum was obtained. According to the manufacturer's protocol, the total serum level of triiodothyronine (T3) or thyroxine (T4) using a mouse ELISA kit (Calbiotech, T3043T-100 or T4044T-100).

tracheal smooth muscle = experiment: Tracheal contraction in rat tracheal ring; conditions: 30 μM after carbachol-induced contraction
Description: All experiments were performed using 4-week-old SD male rats. The experimental protocol was approved by the Animal Ethics Committee of Yonsei University. The rats were sacrificed and tracheal strips were separated. After the connective tissue was separated, the organ was cut into 3 mm long rings. The organ was mounted for tension recording under 1 g tension and equilibrated for 1 hour in an organ bath containing 25 mL of oxygenated physiological solution. The solution was gassed successively with 95% 02 and 5% CO2 at 37° C. After 1 hours of stabilization, 0.3 μM carbachol (CCh) was used to induce a sustained contraction reaction in the organ bath. Once the sustained tension was established, F56 (30 μM) and forskolin (10 μM) and IBMX (100 μM) were applied to the bath. The organ contraction was measured using FORT 10G converter (World Precision Instruments, Sarasota, FL, USA) and PowerLab 4/35 (AD Instruments, Castle Hill, Australia). Data were recorded and analyzed using Labchart Pro 7 (AD Instruments).

SCN^− transport = experiment: Epithelial SCN^− transport in IL-4-treated HNE cells; format: cell-based, human; conditions: 30 μM, 30 minutes
Description: Nasal epithelial cells were plated on a transwell permeable supporter and cultured in ALI (air-liquid interface) for 14 days. After completely differentiated epithelial cells were cultured with IL-4 (Invitrogen, 10 ng/mL) for 48 hours, F56 (30 μM) or vehicle was added for 30 minutes. The transwell insert having cells was washed with PBS and the basal side was treated with 1 mL PBS containing 10 mM glucose and 5 μCi S^14CN (total concentration SCN^−: 86 μM). The apical side of the transwell was filled with 0.5 mL PBS containing 5 μM amiloride to block epithelial sodium. Subsequently, the apical fluid was collected every 5 minutes and placed in scintillation vials for evaluation of radioactivity.

Duox2 mRNA = Duox2 mRNA expression in LPS-treated hAEC, real-time PCR; format: cell-based, human
Description: The total messenger RNA (mRNA) was extracted using TRIzol reagent (Invitrogen, Carlsbad, CA, USA), and was reverse-transcribed using a random hexamer primer, an oligo(dT) primer and SuperScript® III reverse transcriptase (Invitrogen). Quantitative real-time PCR was performed using StepOnePlus Real-Time PCR system (Applied Biosystems, Foster City, CA, USA) and Thunderbird SYBR qPCR mix (Tokyobo, Osaka, Japan). Thermal cycling conditions included the initial stage at 95° C. for 5 minutes, and subsequent 40 cycles at 95° C. for 10 seconds, at 55° C. for 20 seconds and at 72° C. for […].

CC(C)(C)c1ccc(C2=NC(=Cc3cccs3)C(=O)O2)cc1 [F56, 2-(4-(tert-butyl)phenyl)-4-(thiophen-2-ylmethylene)oxazol-5(4H)-one]
IL-4 and IL-13-induced goblet cell hyperplasia (HNE cells): significantly reduced
T3 and T4 plasma level (Serum T3 and T4 in mice): not changed
effect on tracheal smooth muscle (tracheal smooth muscle): did not affect
SCN^− concentration on the apical surface (SCN^− transport): inhibited
mRNA expression level of Duox2 (Duox2 mRNA): did not change
